Consider 4 molecules from ChEMBL document CHEMBL1201862, “PubChem BioAssay data set” (2004).

Calls of active or inactive are those of the source. Where only a bound is given, the exact number is not on record here.

The target in assay [1] is T1, Sentrin-specific protease 6 (Homo sapiens, UniProt Q9GZR1).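 Also: Luminescence-based dose-response confirmatory assay of SENP6 inhibition, following up an ultra-high-throughput screen.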
T1 sequence (Q9GZR1 whole entry): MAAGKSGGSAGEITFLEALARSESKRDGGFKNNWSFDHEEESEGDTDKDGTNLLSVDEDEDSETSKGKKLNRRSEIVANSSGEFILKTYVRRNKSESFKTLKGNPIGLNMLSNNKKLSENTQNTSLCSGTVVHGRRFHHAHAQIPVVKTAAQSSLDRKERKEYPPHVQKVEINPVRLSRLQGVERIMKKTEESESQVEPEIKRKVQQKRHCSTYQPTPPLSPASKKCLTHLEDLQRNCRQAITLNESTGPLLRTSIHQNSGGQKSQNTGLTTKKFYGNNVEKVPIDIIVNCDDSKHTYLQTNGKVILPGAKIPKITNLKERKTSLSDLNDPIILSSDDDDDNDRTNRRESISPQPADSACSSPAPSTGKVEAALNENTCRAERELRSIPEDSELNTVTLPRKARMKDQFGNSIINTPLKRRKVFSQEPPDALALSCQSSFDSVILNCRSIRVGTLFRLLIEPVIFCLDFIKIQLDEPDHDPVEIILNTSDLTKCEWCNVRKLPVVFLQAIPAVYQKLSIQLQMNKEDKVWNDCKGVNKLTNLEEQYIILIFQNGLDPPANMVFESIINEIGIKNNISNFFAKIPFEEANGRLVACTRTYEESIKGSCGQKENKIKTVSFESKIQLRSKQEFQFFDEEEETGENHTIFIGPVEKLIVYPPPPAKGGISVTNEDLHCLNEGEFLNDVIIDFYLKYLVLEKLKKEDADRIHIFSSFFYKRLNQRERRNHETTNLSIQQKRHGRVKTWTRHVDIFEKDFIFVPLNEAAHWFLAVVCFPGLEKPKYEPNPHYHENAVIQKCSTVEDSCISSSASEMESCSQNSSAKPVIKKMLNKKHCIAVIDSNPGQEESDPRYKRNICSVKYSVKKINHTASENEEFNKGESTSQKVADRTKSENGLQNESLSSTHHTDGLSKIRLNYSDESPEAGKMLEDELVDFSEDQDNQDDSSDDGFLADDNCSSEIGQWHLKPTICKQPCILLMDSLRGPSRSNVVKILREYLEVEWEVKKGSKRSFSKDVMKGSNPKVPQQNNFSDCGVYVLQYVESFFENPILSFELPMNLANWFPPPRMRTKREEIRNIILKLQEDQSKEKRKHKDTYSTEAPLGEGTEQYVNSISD
The class given is functional.

Assay [2] has as its target T2, Insulin-degrading enzyme (Homo sapiens, UniProt P14735).
T2 sequence (P14735 whole entry): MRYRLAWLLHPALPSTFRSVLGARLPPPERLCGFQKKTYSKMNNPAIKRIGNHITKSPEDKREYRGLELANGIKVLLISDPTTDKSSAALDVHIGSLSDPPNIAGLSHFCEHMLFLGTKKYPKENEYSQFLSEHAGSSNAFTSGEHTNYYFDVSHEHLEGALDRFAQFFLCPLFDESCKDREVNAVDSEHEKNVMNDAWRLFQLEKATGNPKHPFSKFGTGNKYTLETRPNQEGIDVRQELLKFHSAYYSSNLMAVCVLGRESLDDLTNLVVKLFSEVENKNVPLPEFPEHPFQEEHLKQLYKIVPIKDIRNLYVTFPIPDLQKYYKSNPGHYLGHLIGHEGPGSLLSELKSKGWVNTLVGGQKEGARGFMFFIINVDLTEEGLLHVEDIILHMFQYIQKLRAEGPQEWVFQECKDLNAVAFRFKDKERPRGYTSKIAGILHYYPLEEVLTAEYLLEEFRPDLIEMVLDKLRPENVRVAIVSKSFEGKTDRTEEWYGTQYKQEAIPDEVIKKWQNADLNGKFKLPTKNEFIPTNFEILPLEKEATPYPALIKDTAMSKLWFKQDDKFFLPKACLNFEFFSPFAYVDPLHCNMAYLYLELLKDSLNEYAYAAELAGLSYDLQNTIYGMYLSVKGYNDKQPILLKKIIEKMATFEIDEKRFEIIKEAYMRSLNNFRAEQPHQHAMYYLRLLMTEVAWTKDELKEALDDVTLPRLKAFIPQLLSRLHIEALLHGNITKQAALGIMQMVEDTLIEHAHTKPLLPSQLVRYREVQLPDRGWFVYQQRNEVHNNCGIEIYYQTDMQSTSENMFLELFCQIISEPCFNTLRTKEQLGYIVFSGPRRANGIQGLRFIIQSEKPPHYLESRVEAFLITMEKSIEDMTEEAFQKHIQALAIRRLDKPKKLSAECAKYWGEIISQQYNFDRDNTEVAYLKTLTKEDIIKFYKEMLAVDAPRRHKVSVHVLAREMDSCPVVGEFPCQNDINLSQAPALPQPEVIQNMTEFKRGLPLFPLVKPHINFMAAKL
Description: activators of recombinant IDE enzyme, dose response, counter-screen for IDE activator project, biochemical, fluorescence polarization (AID 588681). On the technique in general: Counterscreens check selectivity or assay interference.

Assay [3] deals with T3, Mitochondrial peptide methionine sulfoxide reductase (Bos taurus, UniProt P54149).
T3 sequence (P54149 whole entry): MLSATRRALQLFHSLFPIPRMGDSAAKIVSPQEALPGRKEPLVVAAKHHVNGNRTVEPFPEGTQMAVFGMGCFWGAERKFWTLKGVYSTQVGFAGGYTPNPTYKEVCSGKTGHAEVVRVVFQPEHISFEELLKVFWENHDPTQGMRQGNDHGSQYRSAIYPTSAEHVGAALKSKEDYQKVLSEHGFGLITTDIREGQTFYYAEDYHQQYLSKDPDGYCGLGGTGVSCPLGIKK
Type of assay: functional.

Assay [4] concerns the target Ephrin type-A receptor 2 (Homo sapiens, UniProt P29317). Type of assay: functional.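 Also: EPHA2 tested as one member of a kinome-wide kinase panel.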
Assay [5] addresses Serine/threonine-protein kinase DCLK1 (Homo sapiens, UniProt O15075). Type of assay: functional.
The target in assay [6] is Protein-tyrosine kinase 2-beta (Homo sapiens, UniProt Q14289). Type of assay: functional.
Sequence of Protein-tyrosine kinase 2-beta (Q14289 whole entry): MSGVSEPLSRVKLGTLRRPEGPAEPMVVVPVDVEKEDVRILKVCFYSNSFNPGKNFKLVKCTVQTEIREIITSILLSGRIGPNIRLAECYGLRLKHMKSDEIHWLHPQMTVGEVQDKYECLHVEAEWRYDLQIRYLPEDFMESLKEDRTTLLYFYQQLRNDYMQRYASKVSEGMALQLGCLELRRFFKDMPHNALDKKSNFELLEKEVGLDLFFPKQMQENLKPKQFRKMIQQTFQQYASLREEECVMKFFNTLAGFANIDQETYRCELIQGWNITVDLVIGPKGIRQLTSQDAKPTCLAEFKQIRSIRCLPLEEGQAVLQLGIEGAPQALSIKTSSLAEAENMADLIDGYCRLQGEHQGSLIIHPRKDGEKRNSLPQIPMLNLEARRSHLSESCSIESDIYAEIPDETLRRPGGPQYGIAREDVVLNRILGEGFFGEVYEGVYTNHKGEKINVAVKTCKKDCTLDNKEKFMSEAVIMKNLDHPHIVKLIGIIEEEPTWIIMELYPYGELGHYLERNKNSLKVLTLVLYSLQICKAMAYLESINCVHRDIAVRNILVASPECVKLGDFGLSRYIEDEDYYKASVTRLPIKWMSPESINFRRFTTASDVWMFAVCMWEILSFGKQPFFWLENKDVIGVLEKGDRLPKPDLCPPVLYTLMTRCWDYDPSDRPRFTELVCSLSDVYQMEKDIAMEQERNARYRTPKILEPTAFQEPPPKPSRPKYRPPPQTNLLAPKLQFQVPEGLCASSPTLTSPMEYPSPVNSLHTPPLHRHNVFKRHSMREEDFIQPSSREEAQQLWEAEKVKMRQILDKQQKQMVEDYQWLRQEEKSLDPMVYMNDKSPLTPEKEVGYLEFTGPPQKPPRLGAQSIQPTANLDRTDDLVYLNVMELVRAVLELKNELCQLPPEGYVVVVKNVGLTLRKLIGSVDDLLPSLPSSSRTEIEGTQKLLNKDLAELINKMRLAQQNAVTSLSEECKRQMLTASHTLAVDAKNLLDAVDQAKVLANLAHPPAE
The target in assay [7] is Mitogen-activated protein kinase kinase kinase kinase 2 (Homo sapiens, UniProt Q12851). Type of assay: functional.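 Also: measured as one member of a kinome-wide kinase panel, with MAP4K2 as the panel entry.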
The target in assay [8] is Vascular endothelial growth factor receptor 2 (Homo sapiens, UniProt P35968). Type of assay: functional.
Sequence of Vascular endothelial growth factor receptor 2 (P35968 whole entry): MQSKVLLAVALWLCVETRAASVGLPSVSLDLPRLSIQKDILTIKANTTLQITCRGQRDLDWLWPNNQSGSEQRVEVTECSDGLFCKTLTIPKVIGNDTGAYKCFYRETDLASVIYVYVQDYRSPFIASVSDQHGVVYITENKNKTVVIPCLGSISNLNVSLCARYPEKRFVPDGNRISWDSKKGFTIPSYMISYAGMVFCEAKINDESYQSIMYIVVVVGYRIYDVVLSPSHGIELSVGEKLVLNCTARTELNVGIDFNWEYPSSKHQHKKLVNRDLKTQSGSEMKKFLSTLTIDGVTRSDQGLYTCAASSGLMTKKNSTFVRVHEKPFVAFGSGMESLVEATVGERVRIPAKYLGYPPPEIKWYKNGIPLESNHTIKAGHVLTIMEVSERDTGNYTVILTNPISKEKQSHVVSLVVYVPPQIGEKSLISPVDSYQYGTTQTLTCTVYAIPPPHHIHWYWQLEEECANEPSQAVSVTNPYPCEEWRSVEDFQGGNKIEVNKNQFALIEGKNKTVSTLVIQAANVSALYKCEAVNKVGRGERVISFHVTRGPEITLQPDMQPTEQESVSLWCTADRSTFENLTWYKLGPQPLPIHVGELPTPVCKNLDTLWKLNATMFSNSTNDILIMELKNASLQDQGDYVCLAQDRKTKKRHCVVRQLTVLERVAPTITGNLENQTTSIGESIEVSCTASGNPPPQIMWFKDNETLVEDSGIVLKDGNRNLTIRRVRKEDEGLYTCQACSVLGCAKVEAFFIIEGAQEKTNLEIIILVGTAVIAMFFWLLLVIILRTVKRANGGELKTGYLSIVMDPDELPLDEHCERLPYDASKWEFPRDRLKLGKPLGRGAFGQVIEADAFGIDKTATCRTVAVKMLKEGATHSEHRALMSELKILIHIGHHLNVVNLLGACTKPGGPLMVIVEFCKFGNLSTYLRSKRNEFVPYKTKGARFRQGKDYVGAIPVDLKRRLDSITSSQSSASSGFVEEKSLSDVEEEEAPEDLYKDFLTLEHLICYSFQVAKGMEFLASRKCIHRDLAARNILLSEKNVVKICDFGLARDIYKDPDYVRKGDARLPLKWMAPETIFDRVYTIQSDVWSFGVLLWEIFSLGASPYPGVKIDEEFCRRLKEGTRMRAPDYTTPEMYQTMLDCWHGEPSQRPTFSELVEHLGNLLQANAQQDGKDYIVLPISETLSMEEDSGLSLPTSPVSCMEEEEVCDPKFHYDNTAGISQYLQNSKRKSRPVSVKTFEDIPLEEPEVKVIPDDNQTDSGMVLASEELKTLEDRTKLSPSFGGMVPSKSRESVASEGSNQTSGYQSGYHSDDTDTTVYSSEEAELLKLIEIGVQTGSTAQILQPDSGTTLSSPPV
Assay [9] deals with Tyrosine-protein kinase JAK3 (Homo sapiens, UniProt P52333). Type of assay: functional.
For assay [10], the target named is Tyrosine-protein kinase ITK/TSK (Homo sapiens, UniProt Q08881). The class given is functional.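 Also: affinity for ITK measured as one member of a broad kinase panel profiling binding across the kinome.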
Sequence of Tyrosine-protein kinase ITK/TSK (Q08881 whole entry): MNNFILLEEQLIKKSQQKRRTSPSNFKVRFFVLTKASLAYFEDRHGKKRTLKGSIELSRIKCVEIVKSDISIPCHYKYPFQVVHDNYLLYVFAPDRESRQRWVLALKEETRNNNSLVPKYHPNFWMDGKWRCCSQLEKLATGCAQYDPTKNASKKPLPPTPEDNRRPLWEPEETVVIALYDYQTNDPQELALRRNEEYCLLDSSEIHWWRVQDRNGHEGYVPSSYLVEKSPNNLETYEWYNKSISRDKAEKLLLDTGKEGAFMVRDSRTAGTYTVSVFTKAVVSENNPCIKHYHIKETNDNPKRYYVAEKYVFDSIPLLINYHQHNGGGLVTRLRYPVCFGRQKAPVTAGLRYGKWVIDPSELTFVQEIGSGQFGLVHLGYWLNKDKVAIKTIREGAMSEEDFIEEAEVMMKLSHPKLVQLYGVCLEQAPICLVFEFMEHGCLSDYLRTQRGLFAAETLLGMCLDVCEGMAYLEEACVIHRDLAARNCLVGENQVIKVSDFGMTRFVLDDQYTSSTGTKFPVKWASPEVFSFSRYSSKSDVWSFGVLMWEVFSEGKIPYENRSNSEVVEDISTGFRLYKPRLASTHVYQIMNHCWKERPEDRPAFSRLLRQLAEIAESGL
Assay [11] concerns the target Insulin receptor (Homo sapiens, UniProt P06213). Type of assay: functional.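 Also: insulin receptor kinase tested as one member of a kinome-wide kinase panel.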
Assay [12] deals with Dual specificity tyrosine-phosphorylation-regulated kinase 1A (Homo sapiens, UniProt Q13627). Type of assay: functional.

Sequence of Ephrin type-A receptor 2 (P29317 whole entry): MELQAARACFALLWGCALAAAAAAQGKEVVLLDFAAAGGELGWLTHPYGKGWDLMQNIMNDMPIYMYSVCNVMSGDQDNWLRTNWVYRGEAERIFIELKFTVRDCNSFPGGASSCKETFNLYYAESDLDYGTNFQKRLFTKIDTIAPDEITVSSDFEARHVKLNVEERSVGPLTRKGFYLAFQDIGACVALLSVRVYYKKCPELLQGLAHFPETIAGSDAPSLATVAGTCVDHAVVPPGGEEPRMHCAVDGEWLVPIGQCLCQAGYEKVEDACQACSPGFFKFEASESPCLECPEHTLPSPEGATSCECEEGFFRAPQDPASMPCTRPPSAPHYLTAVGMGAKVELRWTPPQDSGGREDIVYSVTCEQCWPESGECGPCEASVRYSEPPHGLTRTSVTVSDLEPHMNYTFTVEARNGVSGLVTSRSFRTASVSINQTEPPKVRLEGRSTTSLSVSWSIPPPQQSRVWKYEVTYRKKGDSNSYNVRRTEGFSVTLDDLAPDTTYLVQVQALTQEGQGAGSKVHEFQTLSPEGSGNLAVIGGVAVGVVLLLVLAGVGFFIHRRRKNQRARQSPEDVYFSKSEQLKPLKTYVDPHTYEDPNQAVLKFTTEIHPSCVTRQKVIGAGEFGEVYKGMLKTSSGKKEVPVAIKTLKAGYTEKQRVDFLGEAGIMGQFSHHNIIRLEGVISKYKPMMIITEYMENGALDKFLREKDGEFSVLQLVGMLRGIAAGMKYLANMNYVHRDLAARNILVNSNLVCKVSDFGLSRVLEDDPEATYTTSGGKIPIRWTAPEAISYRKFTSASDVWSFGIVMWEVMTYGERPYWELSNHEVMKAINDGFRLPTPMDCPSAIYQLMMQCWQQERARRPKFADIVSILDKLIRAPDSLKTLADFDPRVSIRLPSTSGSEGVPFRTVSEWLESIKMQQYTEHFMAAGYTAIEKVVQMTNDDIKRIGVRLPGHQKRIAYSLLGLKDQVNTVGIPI
Sequence of Serine/threonine-protein kinase DCLK1 (O15075 whole entry): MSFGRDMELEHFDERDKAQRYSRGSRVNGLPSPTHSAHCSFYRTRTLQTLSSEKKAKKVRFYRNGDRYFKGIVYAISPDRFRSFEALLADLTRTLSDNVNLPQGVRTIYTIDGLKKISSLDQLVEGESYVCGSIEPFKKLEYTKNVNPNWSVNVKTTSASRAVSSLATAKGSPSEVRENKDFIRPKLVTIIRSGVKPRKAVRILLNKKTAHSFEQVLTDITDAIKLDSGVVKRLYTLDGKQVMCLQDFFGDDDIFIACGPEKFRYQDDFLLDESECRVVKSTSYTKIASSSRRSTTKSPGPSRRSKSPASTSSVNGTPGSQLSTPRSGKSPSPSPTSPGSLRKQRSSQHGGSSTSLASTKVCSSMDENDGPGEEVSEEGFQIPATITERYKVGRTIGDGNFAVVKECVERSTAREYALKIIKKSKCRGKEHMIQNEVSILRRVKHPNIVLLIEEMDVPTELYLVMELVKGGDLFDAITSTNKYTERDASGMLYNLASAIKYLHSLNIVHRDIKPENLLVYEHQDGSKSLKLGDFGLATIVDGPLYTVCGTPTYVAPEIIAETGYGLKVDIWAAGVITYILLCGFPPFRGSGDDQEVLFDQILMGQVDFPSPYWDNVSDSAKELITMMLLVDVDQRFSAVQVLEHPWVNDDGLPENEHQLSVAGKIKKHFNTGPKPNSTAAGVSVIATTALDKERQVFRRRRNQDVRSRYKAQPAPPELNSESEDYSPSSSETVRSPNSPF

With `Cc1ccc(C(=O)NC2(O)C(=O)c3ccccc3C2=O)cc1C`, the IC50 in [1] was 3.48 µM (active).
In the case of `CC[C@@H](C)[C@H](CNC)NC[C@@H](Cc1cccc2ccccc12)NCCc1cccc(C(F)(F)F)c1`, the EC50 in [2] was > 54.7 µM (inactive).
For `Cc1ccc(S(=O)(=O)/N=C2\C=C(Nc3cccc(C(=O)O)c3)C(=O)c3ccccc32)cc1`, the IC50 in [3] was 42.4 µM (inactive).
For the molecule `CC(C)(CO)CNc1nccc(-c2c(-c3ccc(F)cc3)nc3c(CC4CC4)nccn23)n1`, the Ki in [4] is > 3.16 µM (inactive); in assay [5], > 10 µM (inactive); in [6] it was > 1.58 µM (inactive); in assay [7], > 6.31 µM (inactive); in assay [8], > 7.94 µM (inactive); in assay [9], > 1.58 µM (inactive). The Ki in assay [10] was > 1.58 µM (inactive); in [11] it was > 5.01 µM (inactive); in [12] it was 2.51 µM (active).

What is called IC50 is the concentration that gives 50% inhibition. One may read the EC50 as the midpoint of the concentration-response curve. What is called Ki is the equilibrium dissociation constant of an inhibitor or competing ligand from its target.
